# According to PubChem BioAssay AID256 (DTP/NCI, 2004):
# Where “and” joins values, the source holds several entries; their conditions need not be identical. Identical values can stand only once. Toxic doses and inconclusive results are not listed.
# Tested on: CD2F1 mice, L1210 leukemia ip, survival T/C
# Experiment: NCI In Vivo Anticancer Drug Screen. Data for tumor model L1210 Leukemia (intraperitoneal) in CD2F1 (CDF1) mice
# Settings: higher = longer survival
# How it was run: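 Antitumor effect is scored in animals hosting a serially transplanted tumor. Values compare compound-dosed animals against vehicle-only controls as a simple quotient.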
# [1] = endpoint: mean survival time, dose: 100.0 mg/kg/injection, schedule: Q01DX009 (ip), vehicle: saline with Tween-80
# [2] = endpoint: mean survival time, dose: 100.0 mg/kg/injection, schedule: Q04DX003 (ip), vehicle: saline with Tween-80
# [3] = endpoint: mean survival time, dose: 200.0 mg/kg/injection, schedule: Q01DX009 (ip), vehicle: saline with Tween-80
# [4] = endpoint: mean survival time, dose: 200.0 mg/kg/injection, schedule: Q04DX003 (ip), vehicle: saline with Tween-80
# [5] = endpoint: mean survival time, dose: 400.0 mg/kg/injection, schedule: Q04DX003 (ip), vehicle: saline with Tween-80
# [6] = endpoint: mean survival time, dose: 12.5 mg/kg/injection, schedule: Q01DX009 (ip), vehicle: water
# [7] = endpoint: mean survival time, dose: 100.0 mg/kg/injection, schedule: Q04DX002 (ip), vehicle: saline with Tween-80
# [8] = endpoint: mean survival time, dose: 200.0 mg/kg/injection, schedule: Q04DX002 (ip), vehicle: saline with Tween-80
# [9] = endpoint: mean survival time, dose: 400.0 mg/kg/injection, schedule: Q04DX002 (ip), vehicle: saline with Tween-80
# [10] = endpoint: mean survival time, dose: 100.0 mg/kg/injection, schedule: Q01DX001 (ip), vehicle: saline with Tween-80
# [11] = endpoint: median survival time, dose: 25.0 mg/kg/injection, schedule: Q01DX009 (ip), vehicle: Klucel (hydroxypropylcellulose) (HPC)
# [12] = endpoint: median survival time, dose: 50.0 mg/kg/injection, schedule: Q01DX009 (ip), vehicle: Klucel (hydroxypropylcellulose) (HPC)
# [13] = endpoint: median survival time, dose: 100.0 mg/kg/injection, schedule: Q01DX009 (ip), vehicle: Klucel (hydroxypropylcellulose) (HPC)
# [14] = endpoint: mean survival time, dose: 400.0 mg/kg/injection, schedule: Q01DX001 (ip), vehicle: saline with Tween-80
# [15] = endpoint: mean survival time, dose: 12.5 mg/kg/injection, schedule: Q01DX009 (ip), vehicle: distilled water + Tween-80
# [16] = endpoint: mean survival time, dose: 25.0 mg/kg/injection, schedule: Q01DX009 (ip), vehicle: distilled water + Tween-80
# [17] = endpoint: mean survival time, dose: 50.0 mg/kg/injection, schedule: Q01DX009 (ip), vehicle: distilled water + Tween-80
smiles,measurement,setting,value
CCCN(CCC)CCCOC(=O)c1ccc([N+](=O)[O-])cc1,T/C,"endpoint: mean survival time, dose: 100.0 mg/kg/injection, schedule: Q04DX003 (ip), vehicle: saline",97 % of control
same,T/C,"endpoint: mean survival time, dose: 200.0 mg/kg/injection, schedule: Q04DX003 (ip), vehicle: saline",92 % of control
same,T/C,"endpoint: mean survival time, dose: 400.0 mg/kg/injection, schedule: Q04DX003 (ip), vehicle: saline",94 % of control
c1ccc(CN2CN(Cc3ccccc3)CN(Cc3ccccc3)C2)cc1,T/C,[1],100 % of control
same,T/C,[2],89 % of control
same,T/C,[3],100 % of control
same,T/C,[4],89 % of control
same,T/C,"endpoint: mean survival time, dose: 400.0 mg/kg/injection, schedule: Q01DX009 (ip), vehicle: saline with Tween-80",97 % of control
same,T/C,[5],98 % of control
CC(=O)NCN(C)N=O,T/C,"endpoint: mean survival time, dose: 100.0 mg/kg/injection, schedule: Q04DX002 (ip), vehicle: saline",91 % of control
same,T/C,"endpoint: mean survival time, dose: 200.0 mg/kg/injection, schedule: Q04DX002 (ip), vehicle: saline",91 % of control
same,T/C,"endpoint: mean survival time, dose: 400.0 mg/kg/injection, schedule: Q04DX002 (ip), vehicle: saline",91 % of control
COC(=O)Cc1nc2ccccc2[nH]c1=O,T/C,"endpoint: mean survival time, dose: 50.0 mg/kg/injection, schedule: Q01DX009 (ip), vehicle: saline with Tween-80",103 % of control
same,T/C,[1],92 % of control
same,T/C,[3],100 % of control
COC(=O)C1=NNC(C(=O)OC)=NN1,T/C,[6],95 % of control
same,T/C,"endpoint: mean survival time, dose: 25.0 mg/kg/injection, schedule: Q01DX009 (ip), vehicle: water",95 % of control
same,T/C,"endpoint: mean survival time, dose: 50.0 mg/kg/injection, schedule: Q01DX009 (ip), vehicle: water",98 % of control
same,T/C,"endpoint: mean survival time, dose: 100.0 mg/kg/injection, schedule: Q01DX009 (ip), vehicle: water",105 % of control
same,T/C,"endpoint: mean survival time, dose: 200.0 mg/kg/injection, schedule: Q01DX009 (ip), vehicle: water",90 % of control
CC1(C)C(=O)C(Cl)C(c2ccccc2)=C1c1ccccc1 (centres undefined),T/C,[7],101 % of control
same,T/C,[8],96 % of control
same,T/C,[9],101 % of control
Nc1cc(Cl)c(O)c(Cl)c1,T/C,[10],92 % of control
O=C(Nc1ccc(Cl)c(Cl)c1)Nc1ccc(Cl)c(Cl)c1 (tested in a mixture with another compound),T/C,[7],97 % of control
same,T/C,[8],90 % of control
same,T/C,[9],97 % of control
COc1cc(Cl)ccc1NC(=O)Oc1ccc(C)cc1[N+](=O)[O-],T/C,"endpoint: mean survival time, dose: 5.0 mg/kg/injection, schedule: Q01DX009 (ip), vehicle: saline with Tween-80",93 % of control
same,T/C,[1],96 % of control
same,T/C,[3],96 % of control
CCn1c(-c2ccc(OC(C)=O)cc2)c(C)c2cc(OC(C)=O)ccc21,T/C,[11],107 % of control
same,T/C,[12],102 % of control
same,T/C,[13],96 % of control
same,T/C,"endpoint: median survival time, dose: 200.0 mg/kg/injection, schedule: Q01DX009 (ip), vehicle: Klucel (hydroxypropylcellulose) (HPC)",102 % of control
same,T/C,"endpoint: median survival time, dose: 400.0 mg/kg/injection, schedule: Q01DX009 (ip), vehicle: Klucel (hydroxypropylcellulose) (HPC)",90 % of control
C=C1C(=O)OC2C1C(OC(=O)/C(=C/C)COC(C)=O)CC1(CO1)C1C(OC(=O)/C(=C/C)CO)C=C(C)C21 (centres undefined),T/C,[10],88 % of control
same,T/C,[14],93 % of control
C1CC(N2CC2)CCC1N1CC1 (centres undefined),T/C,"endpoint: mean survival time, dose: 6.0 mg/kg/injection, schedule: Q04DX003 (ip), vehicle: saline",169 % of control
same,T/C,"endpoint: mean survival time, dose: 9.0 mg/kg/injection, schedule: Q04DX003 (ip), vehicle: saline",124 % of control
same,T/C,"endpoint: mean survival time, dose: 13.0 mg/kg/injection, schedule: Q04DX003 (ip), vehicle: saline",110 % of control
same,T/C,"endpoint: mean survival time, dose: 20.0 mg/kg/injection, schedule: Q04DX003 (ip), vehicle: saline",86 % of control
OC1C=C(c2ccccc2)C(c2ccccc2)C(c2ccccc2)C1 (centres undefined),T/C,[10],89 % of control
same,T/C,[14],101 % of control
CC(C)(C)OC(=O)Cc1ccccc1,T/C,[10],91 % of control
same,T/C,"endpoint: mean survival time, dose: 200.0 mg/kg/injection, schedule: Q01DX001 (ip), vehicle: saline with Tween-80",97 % of control
same,T/C,[14],94 % of control
COc1ccc(CNC(C)(C#N)c2ccccc2)cc1OC (centres undefined),T/C,[2],107 % of control
same,T/C,[4],93 % of control
same,T/C,[5],98 % of control
Nc1cc(Cl)c2[nH]cnc2n1,T/C,"endpoint: mean survival time, dose: 6.25 mg/kg/injection, schedule: Q01DX009 (ip), vehicle: distilled water + Tween-80",107 % of control
same,T/C,"endpoint: mean survival time, dose: 6.25 mg/kg/injection, schedule: Q01DX009 (ip), vehicle: water",102 % of control
same,T/C,[15],120 % of control
same,T/C,[6],113 % of control
same,T/C,[16],150 % of control
same,T/C,[17],150 % of control and 164 % of control
same,T/C,"endpoint: mean survival time, dose: 50.0 mg/kg/injection, schedule: Q04DX003 (ip), vehicle: Klucel (hydroxypropylcellulose) (HPC)",118 % of control and 110 % of control
same,T/C,"endpoint: mean survival time, dose: 85.0 mg/kg/injection, schedule: Q04DX003 (ip), vehicle: saline with Tween-80",108 % of control
same,T/C,"endpoint: mean survival time, dose: 100.0 mg/kg/injection, schedule: Q01DX009 (ip), vehicle: distilled water + Tween-80",151 % of control and 185 % of control
same,T/C,"endpoint: mean survival time, dose: 100.0 mg/kg/injection, schedule: Q04DX003 (ip), vehicle: Klucel (hydroxypropylcellulose) (HPC)",115 % of control and 109 % of control
same,T/C,"endpoint: mean survival time, dose: 200.0 mg/kg/injection, schedule: Q01DX009 (ip), vehicle: distilled water + Tween-80",153 % of control and 228 % of control
same,T/C,"endpoint: mean survival time, dose: 200.0 mg/kg/injection, schedule: Q04DX003 (ip), vehicle: Klucel (hydroxypropylcellulose) (HPC)",108 % of control
same,T/C,"endpoint: mean survival time, dose: 300.0 mg/kg/injection, schedule: Q04DX003 (ip), vehicle: Klucel (hydroxypropylcellulose) (HPC)",120 % of control and 109 % of control
same,T/C,"endpoint: mean survival time, dose: 400.0 mg/kg/injection, schedule: Q01DX009 (ip), vehicle: distilled water + Tween-80",100 % of control
same,T/C,"endpoint: median survival time, dose: 6.0 mg/kg/injection, schedule: Q01DX009 (ip), vehicle: Klucel (hydroxypropylcellulose) (HPC)",108 % of control
same,T/C,"endpoint: median survival time, dose: 12.0 mg/kg/injection, schedule: Q01DX009 (ip), vehicle: Klucel (hydroxypropylcellulose) (HPC)",119 % of control
same,T/C,"endpoint: median survival time, dose: 25.0 mg/kg/injection, schedule: Q01DX005 (ip), vehicle: saline with Tween-80",120 % of control
same,T/C,[11],152 % of control
same,T/C,"endpoint: median survival time, dose: 25.0 mg/kg/injection, schedule: Q01DX009 (ip), vehicle: saline with Tween-80",153 % of control
same,T/C,[12],172 % of control
same,T/C,"endpoint: median survival time, dose: 50.0 mg/kg/injection, schedule: Q01DX009 (ip), vehicle: saline with Tween-80",188 % of control
same,T/C,"endpoint: median survival time, dose: 100.0 mg/kg/injection, schedule: Q01DX005 (ip), vehicle: saline with Tween-80",161 % of control
same,T/C,[13],178 % of control
same,T/C,"endpoint: median survival time, dose: 100.0 mg/kg/injection, schedule: Q01DX009 (ip), vehicle: saline with Tween-80",160 % of control
same,T/C,"endpoint: median survival time, dose: 200.0 mg/kg/injection, schedule: Q01DX005 (ip), vehicle: saline with Tween-80",159 % of control
CC(=O)Oc1ccc2ccccc2c1-c1c(OC(C)=O)ccc2ccccc12,T/C,"endpoint: mean survival time, dose: 25.0 mg/kg/injection, schedule: Q04DX002 (ip), vehicle: saline with Tween-80",101 % of control
same,T/C,"endpoint: mean survival time, dose: 50.0 mg/kg/injection, schedule: Q04DX002 (ip), vehicle: saline with Tween-80",101 % of control
same,T/C,[7],101 % of control
Nc1ncnc2c1c1c(=O)[nH]nnc1n2C1OC(CO)C(O)C1O (centres undefined),T/C,"endpoint: mean survival time, dose: 3.13 mg/kg/injection, schedule: Q01DX005 (ip), vehicle: water",101 % of control
same,T/C,"endpoint: mean survival time, dose: 6.25 mg/kg/injection, schedule: Q01DX005 (ip), vehicle: water",103 % of control
same,T/C,"endpoint: mean survival time, dose: 12.5 mg/kg/injection, schedule: Q01DX005 (ip), vehicle: water",92 % of control
same,T/C,[15],113 % of control
same,T/C,"endpoint: mean survival time, dose: 25.0 mg/kg/injection, schedule: Q01DX005 (ip), vehicle: water",107 % of control
same,T/C,[16],122 % of control
same,T/C,"endpoint: mean survival time, dose: 50.0 mg/kg/injection, schedule: Q01DX005 (ip), vehicle: water",105 % of control
same,T/C,[17],122 % of control
same,T/C,"endpoint: mean survival time, dose: 100.0 mg/kg/injection, schedule: Q01DX005 (ip), vehicle: water",107 % of control
Nc1ccc(C(=O)O)c([N+](=O)[O-])c1,T/C,"endpoint: mean survival time, dose: 100.0 mg/kg/injection, schedule: Q01DX001 (ip), vehicle: Klucel (hydroxypropylcellulose) (HPC)",96 % of control
same,T/C,"endpoint: mean survival time, dose: 200.0 mg/kg/injection, schedule: Q01DX001 (ip), vehicle: Klucel (hydroxypropylcellulose) (HPC)",100 % of control
same,T/C,"endpoint: mean survival time, dose: 400.0 mg/kg/injection, schedule: Q01DX001 (ip), vehicle: Klucel (hydroxypropylcellulose) (HPC)",100 % of control
